Reference: US8859777B2, “4-fluoro-4-arylpiperdin-1-yl derivatives as mu opioid function moderators” (priority 2010, dated 2014)
Counter-ions that a name gives are not always drawn. Like-named read-outs stand apart in the source and are kept apart here.

Target: T1, Mu opioid receptor (Homo sapiens, UniProt P35372)
T1 construct: expressed in transfected cells; host or cells: HEK-293
Experiment: Affinity for the Mu opioid receptor, [3H]diprenorphine radioligand binding
Method: Compounds of the invention were assayed for affinity for the Mu opioid receptor using the methodology described in Zhang et al. (J. Pharmacol. Exp. Ther., (1998) 286: 136-141). Compounds were assessed in human recombinant (HEK-293) cells using tritium labeled diprenorphine (0.4 nM) as the specific determinant and non-specific binding was assayed with naltrexone (1 μM). Cells were incubated for 120 minutes at 22° C. before isolation and radioactivity determination by scintillation counting. The IC50 values (concentration causing a half-maximal inhibition of control specific binding) and Hill coefficients (nH) were determined by non-linear regression analysis of the competition curves generated with mean replicate values using Hill equation curve fitting (Y=D+[(A−D)/(1+(C/C50)^nH)], where Y=specific binding, D=minimum specific binding, A=maximum specific binding, C=compound concentration, C50=IC50, and nH=slope factor). The inhibition constants (Ki) were calculated using the Cheng-Prusoff equation (Ki=IC50/(1+(L/KD)), where L=concentration of radioligand in the assay, and KD=affinity of the radioligand for the receptor). Each data point was obtained in duplicate and results are the mean value.

[1] = human recombinant (HEK-293) cells, tritium labeled diprenorphine 0.4 nM, non-specific binding with naltrexone 1 μM, 120 minutes at 22° C., mean of duplicates, read-out: Affinity

T1 sequence (P35372 whole entry): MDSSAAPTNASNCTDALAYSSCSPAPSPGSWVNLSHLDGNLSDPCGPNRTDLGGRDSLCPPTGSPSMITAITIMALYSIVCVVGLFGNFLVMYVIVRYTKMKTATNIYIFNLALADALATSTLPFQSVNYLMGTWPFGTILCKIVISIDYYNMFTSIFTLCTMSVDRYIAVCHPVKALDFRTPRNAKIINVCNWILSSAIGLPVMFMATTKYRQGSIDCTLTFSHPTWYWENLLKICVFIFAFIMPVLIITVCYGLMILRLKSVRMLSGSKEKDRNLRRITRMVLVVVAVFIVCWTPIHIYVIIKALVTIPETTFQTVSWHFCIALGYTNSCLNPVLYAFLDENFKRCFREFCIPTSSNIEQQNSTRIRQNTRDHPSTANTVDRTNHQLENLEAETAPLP

Structure (SMILES)	Ki [1]	Ki
O=C(O)C(Cc1ccccc1)(Cc1ccccc1)CN1CCC(F)(c2ccc(Cl)cc2)CC1 [Example 5, 2,2-Dibenzyl-3-[4-(4-chlorophenyl)-4-fluoropiperidin-1-yl]propionic acid Hydrochloride]	1000 to 10000 nM	
CC(C)(C)NC(=O)Nc1cccc(C2(F)CCN(CCOc3ccccc3)CC2)c1 [Example 19, 1-tert-Butyl-3-{3-[4-fluoro-1-(2-phenoxyethyl)-piperidin-4-yl]phenyl}-urea]	1000 to 10000 nM	
FC1(c2ccc(Cl)cc2)CCN(CCC(c2ccccc2)c2ccccc2)CC1 [Example 1, 4-(4-Chlorophenyl)-1-(3,3-diphenylpropyl)-4-fluoropiperidine Hydrochloride]	1000 to 10000 nM	
Oc1cccc(C2(F)CCN(CCCC3CCCCC3)CC2)c1 [Example 11, 1-(3-Cyclohexylpropyl)-4-fluoro-4-(3-hydroxyphenyl)piperidine Hydrochloride]		< 100 nM
CC1CN(CC(Cc2ccccc2)(Cc2ccccc2)C(=O)O)CCC1(F)c1cccc(O)c1 (centres unmarked) [Example 15, 2,2-Dibenzyl 3-[4-(3-hydroxyphenyl)-4-fluoro-3-methylpiperidin-1-yl]propionic Acid Hydrochloride]		< 100 nM
Cc1ccc(S(=O)(=O)Nc2cccc(C3(F)CCN(CCOc4ccccc4)CC3)c2)cc1 [Example 17, N-{3-[4-Fluoro-1-(2-phenoxyethyl)piperidin-4-yl]phenyl}-4-methyl-benzenesulfonamide Hydrochloride]		100 to 1000 nM
CC1CN(CCOc2ccccc2)CCC1(F)c1cccc(O)c1 (centres unmarked) [Example 13, 4-fluoro-4-(3-Hydroxyphenyl)-3-methyl-1-(2-phenoxyethyl)piperidine Hydrochloride]		< 100 nM
CS(=O)(=O)Nc1cccc(C2(F)CCN(CCOc3ccccc3)CC2)c1 [Example 18, N-{3-[4-Fluoro-1-(2-phenoxyethyl)piperidin-4-yl]phenyl}methane-sulfonamide Hydrochloride]	1000 to 10000 nM	
